In patent US12274774B2, “Cosmetic composition derived from natural products for improving skin health” (SEOUL NATIONAL UNIVERSITY R&DB FOUNDATION, priority 2021, dated 2025):

Assays:
[1] = system: Human-derived normal fibroblasts; experiment: Cell proliferation efficacy (MTT method); assay type: cell-based; conditions: 10 μM, 72 hours culture, FIG. 1
Protocol: • 1) Human-derived normal fibroblasts were cultured. • 2) The cells were inoculated in an appropriate number, and after 24 hours, starvation was performed for 24 hours. • 3) The cells were cultured for 72 hours in media treated with samples at different concentrations, respectively. • 4) Cell activity was measured and analyzed by the MTT method.

[2] = biological target: T1, tyrosinase (melanin synthase) (Homo sapiens, UniProt P14679); experiment: Whitening efficacy: inhibition of tyrosinase activity in pigment cells; assay type: cell-based; conditions: 1 μM to 50 μM, human-derived normal pigment cells, 72 hours, FIG. 5
T1 construct: The cells were lysed, the supernatant was separated; endogenous in cells; host or cells: human-derived normal pigment cells
T1 sequence (P14679 19-529): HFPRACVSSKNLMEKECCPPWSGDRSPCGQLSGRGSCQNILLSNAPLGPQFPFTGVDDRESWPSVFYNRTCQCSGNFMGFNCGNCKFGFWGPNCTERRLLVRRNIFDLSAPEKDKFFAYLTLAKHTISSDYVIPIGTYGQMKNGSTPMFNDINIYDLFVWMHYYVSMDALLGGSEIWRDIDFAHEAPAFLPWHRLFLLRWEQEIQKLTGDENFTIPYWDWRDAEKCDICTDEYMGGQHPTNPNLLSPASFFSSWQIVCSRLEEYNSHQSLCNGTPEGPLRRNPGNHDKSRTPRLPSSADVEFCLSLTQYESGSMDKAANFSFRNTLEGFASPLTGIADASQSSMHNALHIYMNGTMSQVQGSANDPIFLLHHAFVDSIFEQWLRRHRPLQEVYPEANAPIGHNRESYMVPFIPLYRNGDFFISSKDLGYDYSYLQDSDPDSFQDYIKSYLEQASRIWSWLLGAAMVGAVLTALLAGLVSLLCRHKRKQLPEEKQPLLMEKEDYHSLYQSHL
Protocol: • 1) Human-derived normal pigment cells were inoculated in an appropriate number and cultured for 1 day. • 2) The culture medium was replaced with culture media treated with respective samples and cultured for 72 hours. • 3) The cells were lysed, the supernatant was separated, and the absorbance value of the supernatant was measured at 475 nm at 30 minute intervals while the supernatant was allowed to react with dopa, a reactant, at 37° C. • 4) The amount of protein in the cell lysis supernatant was measured by the BCA method to correct a tyrosinase (melanin synthase) measurement value.

[3] = Antioxidant efficacy (DPPH assay); assay type: biochemical; conditions: 1 μM to 50 μM, absorbance at 517 nm, FIG. 2
Protocol: • 1) 115 μL of 70% ethanol was dispensed to each of 96 wells. • 2) 5 μL of each sample and positive control was dispensed, and the absorbance was measured at 517 nm to measure the absorbance before the reaction. • 3) 80 μL of a DPPH solution was dispensed. • 4) After the reaction, the absorbance was measured at 517 nm, and the result was analyzed by using the absorbance values before and after the reaction.

B16F10 cells [4] = experiment: Whitening efficacy: inhibition of B16F10 extracellular melanin synthesis; assay type: cell-based; conditions: 10 μM to 50 μM, α-MSH treated B16F10 cells, 72 hours, culture media, FIG. 4
Protocol: • 1) B16F10 cells were cultured. • 2) The cells were inoculated in an appropriate number, and after 24 hours, all groups except blank were treated with α-MSH and samples, respectively. • 3) The cells were cultured for 72 hours in culture media treated with respective samples. • 4) The absorbance values of the cell culture media were measured. • 5) The cells were lysed, the supernatant was separated, and the amount of protein was measured by the BCA method to correct the amount of melanin synthesis. • 6) The measured melanin synthesis value was corrected into the amount of protein to calculate the amount of melanin synthesis per unit cell.

[5] = system: Human-derived normal fibroblasts; experiment: Wrinkle improvement efficacy (collagen synthesis); assay type: cell-based; conditions: 10 μM to 20 μM, UV-irradiated fibroblasts, FIG. 6
Protocol: • 1) Human-derived normal fibroblasts were inoculated at 2×10^5/6 well and cultured. • 2) Culture was performed for 1 day under starvation conditions. • 3) The cells were treated with samples at different concentrations, respectively, and cultured for 24 hours. • 4) The cells were washed and then irradiated with UV, followed by culture for 48 hours. • 5) The amount of collagen expression in the cell culture medium was measured and analyzed.

Propionibacterium acnes = experiment: Anti-acne efficacy (antibacterial efficacy); assay type: cell-based; conditions: 20 μM to 200 μM, 72 hours anaerobic culture, FIG. 7
Protocol: • 1) Propionibacterium acnes, anaerobic acne bacteria, were cultured under anaerobic culture conditions. • 2) The strain was prepared by adjusting the turbidity to McFarland standard NO. 1, followed by dilution of 1/20 in a liquid culture medium. • 3) Liquid nutrient media were treated with samples at different concentrations, respectively. • 4) After 100 μL of each of the liquid nutrient media treated with the samples was dispensed, 10 μL of the prepared strain was inoculated to each medium. • 5) After the strain was cultured for 72 hours under anaerobic culture conditions, the number of bacteria was measured and analyzed.

[6] = Measurement of absorbance (spectrophotometer); assay type: physicochemical; conditions: 10 μM to 50 μM in organic solvent; UV-A (320 nm to 400 nm), UV-B (280 nm to 320 nm), UV-C (200 nm to 280 nm), FIG. 8
Protocol: • 1) Resveratrone was dissolved in an organic solvent at a concentration of 10 μM to 50 μM. • 2) The absorbance of resveratrone was measured by using a spectrophotometer.

B16F10 cells [7] = experiment: Whitening efficacy: inhibition of B16F10 intracellular melanin synthesis; assay type: cell-based; conditions: 10 μM to 50 μM, α-MSH treated B16F10 cells, 72 hours, FIG. 3
Protocol: • 1) B16F10 cells were cultured. • 2) The cells were inoculated in an appropriate number, and after 24 hours, all groups except blank were treated with α-MSH and samples, respectively. • 3) The cells were cultured for 72 hours in culture media treated with respective samples. • 4) The cells were lysed, the supernatant was separated, and the absorbance value of the supernatant was measured. • 5) The amount of protein in each supernatant was measured and analyzed by the BCA method. • 6) The melanin synthesis value measured in the supernatant was corrected into the amount of protein to calculate the amount of melanin synthesis per unit cell.

For `CC(=O)/C=C/c1ccc2cc(O)cc(O)c2c1` [resveratrone, Resveratrone], the “increase in number of cells” value [1] was 20%, the “inhibition of tyrosinase activity” value [2] was “inhibition of tyrosinase activity was confirmed” and the radical scavenging ability [3] was “radical scavenging ability was confirmed”. For the same compound, the “inhibition of extracellular melanin synthesis” value (B16F10 cells [4]) was “inhibition of melanin synthesis was confirmed”, the “increase in collagen synthesis” value [5] was “increase in collagen synthesis was confirmed” and the “inhibition of bacterial growth” value (Propionibacterium acnes) was “inhibition of bacterial growth was confirmed”. For the same compound, the UV absorption [6] was “absorption was confirmed in all UV regions” and the “inhibition of intracellular melanin synthesis” value (B16F10 cells [7]) was “inhibition of melanin synthesis was confirmed”.
